Measured values published in ChEMBL document CHEMBL3832087, “DailyMed|setid=a60f39f6-d590-4b00-8751-7f12b7ec5385 | ZAFIRLUKAST- zafirlukast tablet, film coated|American Health Packaging”.
Where “and” joins values, the source holds several entries; their conditions need not be identical. Identical values can stand only once.

Key:
Format in all cases: ADME, organism-based
[1] = (§1) Evaluation of pharmacokinetic parameters for Zafirlukast following single oral administration to healthy boys and girls.; set-up: dose 20 mg, route oral; settings: both, human, in vivo, dose 20 mg, dosed compound id 45, dosed compound name ZAFIRLUKAST, regimen Single dose, route oral, tissue Plasma
[2] = tested on: Homo sapiens; assay: as §1; set-up: dose 20 mg, route oral; settings: in vivo, po, dosed compound id 45, dosed compound name ZAFIRLUKAST, regimen Single dose, tissue Plasma; for CL/F / Tmax: dose 20 mg
[3] = (§2) Evaluation of pharmacokinetic parameters for Zafirlukast following oral administration of Zafirlukast tablets in subjects of varying health status.; settings: human, dosed compound id 45, dosed compound name ZAFIRLUKAST, tissue Plasma
[4] = tested on: Homo sapiens; assay: as §2; settings: in vivo, po, dosed compound id 45, dosed compound name ZAFIRLUKAST, gender male and female, tissue Plasma

## COc1cc(C(=O)NS(=O)(=O)c2ccccc2C)ccc1Cc1cn(C)c2ccc(NC(=O)OC3CCCC3)cc12 [ZAFIRLUKAST]
[1]; gender male and female
  Tmax: 2.1 h
[1]
  half-life: 13.3 h
[2]; gender male and female
  CL/F: 9.2 L/h and 11.4 L/h
  Tmax: 2.5 h
  AUC: 2.458 µg·h/mL and 2.027 µg·h/mL
  Cmax: 0.756 µg/mL and 0.601 µg/mL
[2]; gender male
  CL/F: 19.4 L/h
  Tmax: 2 h
  AUC: 1.137 µg·h/mL
  Cmax: 0.326 µg/mL
[3]; read-out: Protein binding
  fraction unbound: 0.01
[3]; in vivo, gender male and female
  half-life: 10 h
[3]; in vivo
  Tmax: 3 h
[3]; in vivo, read-out: Vss/F
  Vd/F: 70 L
[4]
  t1/2: 8 h and 16 h and 10 h
